Test results taken from patent publication US20050215614A1, “Substituted indoles and their use as hcv inhibitors” (Rigel Pharmaceuticals, Inc., priority 2003, published 2005).

These compounds were tested on HCV replicon (assay: HCV Replicon Assay (luciferase, 5-2 Luc replicon cells)). Details: 5-2 Luc replicon cells (Huh7), 24-48 hours with compound, luciferase counts.
Assay type: cell-based
Experimental: Actively dividing 5-2 Luc replicon cells were seeded at the density of 5000-7500 cells/well in the volume of 90 μl/well into 96 well plate(s). The cells were then incubated at 37° C. and 5% CO2 for 24 hours. The 5-2 cells are replicon cells licensed from Ralf Bartenschlager (Germany) and have a self-replicating RNA molecule in the Huh7 cell; the RNA contains HCV non-structural proteins that make the self-replication possible.
Various concentrations of compounds (in the volume of 10 μl) were added into each well 24 hours after seeding the cells. The cells were incubated for another 24-48 hours before luciferase assay.
After incubating the 5-2 Luc replicon cells with the compounds for 24-48 hours, media were aspirated from each well and Bright-Glo (Promega) luciferase assay reagents were added to each well according to the manufacturer′s manual. Briefly, the Bright-Glo reagent was diluted with equal volume of PBS and an aliquote (100 μl) was added to each well. After incubating the plate at room temperature for 5 minutes, luciferase counts were taken using a luminometer.

| Compound | Activity (concentration of inhibitory activity) |
| --- | --- |
| CC(C)(C)c1cc2cc(NC(=O)CCN3CCCCC3)ccc2[nH]1 [Compound 213] | b (“b” indicates activity is at a concentration greater than 10 micromolar) |
| CC(=O)N1CCC(C(=O)Nc2ccc3[nH]c(C(C)(C)C)cc3c2)CC1 [Compound 214] | b (“b” indicates activity is at a concentration greater than 10 micromolar) |
| CC(C)(C)c1cc2cc(NC(=O)CCc3c[nH]c4ccccc34)ccc2[nH]1 [Compound 215] | b (“b” indicates activity is at a concentration greater than 10 micromolar) |
| CC(C)(C)c1cc2cc(NC(=O)Cc3ccc4c(c3)OCO4)ccc2[nH]1 [Compound 216] | b (“b” indicates activity is at a concentration greater than 10 micromolar) |
| CC(C)(C)c1cc2cc(NC(=O)Cc3cccnc3)ccc2[nH]1 [Compound 217] | b (“b” indicates activity is at a concentration greater than 10 micromolar) |
| CC(=O)NCCC(=O)Nc1ccc2[nH]c(C(C)(C)C)cc2c1 [Compound 218] | b (“b” indicates activity is at a concentration greater than 10 micromolar) |
| CC(C)(C)c1cc2cc(NC(=O)CC(c3ccccc3)c3ccccc3)ccc2[nH]1 [Compound 219] | b (“b” indicates activity is at a concentration greater than 10 micromolar) |
| CC(C)(C)c1cc2cc(NC(=O)Cc3ccc(F)cc3)ccc2[nH]1 [Compound 220] | b (“b” indicates activity is at a concentration greater than 10 micromolar) |
| CC(C)(C)c1cc2cc(NC(=O)Cc3ccc(-c4ccccc4)cc3)ccc2[nH]1 [Compound 221] | b (“b” indicates activity is at a concentration greater than 10 micromolar) |
| CN(C)CCCC(=O)Nc1ccc2[nH]c(C(C)(C)C)cc2c1 [Compound 222] | b (“b” indicates activity is at a concentration greater than 10 micromolar) |
| COc1cscc1C(=O)Nc1ccc2[nH]c(C(C)(C)C)cc2c1 [Compound 223] | a (“a” indicates inhibitory activity at a concentration of less than 10 micromolar) |
| CCCC(=O)Nc1ccc2[nH]c(C(C)(C)C)cc2c1 [Compound 224] | b (“b” indicates activity is at a concentration greater than 10 micromolar) |
| CC(C)(C)c1cc2cc(NC(=O)c3ccccc3)ccc2[nH]1 [Compound 225] | b (“b” indicates activity is at a concentration greater than 10 micromolar) |
| CC(C)(C)c1cc2cc(NC(=O)c3cccc(F)c3)ccc2[nH]1 [Compound 226] | b (“b” indicates activity is at a concentration greater than 10 micromolar) |
| CC(C)(C)c1cc2cc(NC(=O)c3cccc(Cl)c3)ccc2[nH]1 [Compound 227] | b (“b” indicates activity is at a concentration greater than 10 micromolar) |
| CC(C)(C)c1cc2cc(NC(=O)c3cc4ccccc4s3)ccc2[nH]1 [Compound 228] | b (“b” indicates activity is at a concentration greater than 10 micromolar) |
| CC(C)(C)c1cc2cc(NC(=O)c3sccc3Cl)ccc2[nH]1 [Compound 229] | b (“b” indicates activity is at a concentration greater than 10 micromolar) |
| CC(C)(C)c1cc2cc(NC(=O)c3ccco3)ccc2[nH]1 [Compound 230] | b (“b” indicates activity is at a concentration greater than 10 micromolar) |
| Cc1cn(C(=O)c2c(Cl)cccc2Cl)c2ccc(NC(=O)C3(c4ccc(Cl)cc4)CCCC3)cc12 [Compound 231] | b (“b” indicates activity is at a concentration greater than 10 micromolar) |
| Cc1cn(C(=O)c2c(Cl)cccc2Cl)c2ccc(NC(=O)c3c(Cl)cccc3Cl)cc12 [Compound 232] | b (“b” indicates activity is at a concentration greater than 10 micromolar) |
| Cc1ccsc1C(=O)Nc1ccc2c(c1)c(C)cn2C(=O)c1c(Cl)cccc1Cl [Compound 233] | b (“b” indicates activity is at a concentration greater than 10 micromolar) |
| Cc1cn(C(=O)c2c(Cl)cccc2Cl)c2ccc(NC(=O)c3c(F)cccc3F)cc12 [Compound 235] | b (“b” indicates activity is at a concentration greater than 10 micromolar) |
| Cc1cn(C(=O)c2c(Cl)cccc2Cl)c2ccc(NC(=O)C3CCCCC3)cc12 [Compound 236] | b (“b” indicates activity is at a concentration greater than 10 micromolar) |
| Cc1cn(C(=O)c2c(Cl)cccc2Cl)c2ccc(NC(=O)/C=C/c3ccccc3)cc12 [Compound 237] | b (“b” indicates activity is at a concentration greater than 10 micromolar) |

| Compound | Activity (concentration of inhibitory activity) |
| --- | --- |
| Cc1c(C)n(C(=O)c2c(Cl)cccc2Cl)c2ccc(NC(=O)/C=C/c3ccccc3)cc12 [Compound 238] | b (“b” indicates activity is at a concentration greater than 10 micromolar) |
| Cc1cc2cc(NC(=O)C3CCCC3)ccc2n1C(=O)c1ccc(Cl)cc1Cl [Compound 239] | b (“b” indicates activity is at a concentration greater than 10 micromolar) |
| Cc1cc2cc(NC(=O)C3CCCC3)ccc2n1C(=O)c1cccc(OC(F)(F)F)c1 [Compound 240] | b (“b” indicates activity is at a concentration greater than 10 micromolar) |
| Cc1cc2cc(NC(=O)C(Cl)Cl)ccc2n1C(=O)c1c(Cl)cccc1Cl [Compound 241] | b (“b” indicates activity is at a concentration greater than 10 micromolar) |
| Cc1cc2cc(NC(=O)c3cccs3)ccc2n1C(=O)c1c(Cl)cccc1Cl [Compound 242] | b (“b” indicates activity is at a concentration greater than 10 micromolar) |
| Cc1cc2cc(NC(=O)c3cccc(C(F)(F)F)c3)ccc2n1C(=O)c1c(Cl)cccc1Cl [Compound 243] | b (“b” indicates activity is at a concentration greater than 10 micromolar) |
| Cc1cc2cc(NC(=O)c3cccc(F)c3)ccc2n1C(=O)c1c(Cl)cccc1Cl [Compound 244] | b (“b” indicates activity is at a concentration greater than 10 micromolar) |
| Cc1cc2cc(NC(=O)c3nc4ccccc4s3)ccc2n1C(=O)c1c(Cl)cccc1Cl [Compound 245] | b (“b” indicates activity is at a concentration greater than 10 micromolar) |
| CC(=O)N1CCC(C(=O)Nc2ccc3c(c2)cc(C)n3C(=O)c2c(Cl)cccc2Cl)CC1 [Compound 246] | b (“b” indicates activity is at a concentration greater than 10 micromolar) |
| O=C(Nc1ccc2c(ccn2C(=O)c2c(Cl)cccc2Cl)c1)C1CCCC1 [Compound 247] | b (“b” indicates activity is at a concentration greater than 10 micromolar) |
| O=C(Nc1ccc2c(ccn2C(=O)c2c(Cl)cccc2Cl)c1)C(Cl)Cl [Compound 248] | b (“b” indicates activity is at a concentration greater than 10 micromolar) |
| O=C(Nc1ccc2c(ccn2C(=O)c2c(Cl)cccc2Cl)c1)c1cccc(F)c1 [Compound 249] | b (“b” indicates activity is at a concentration greater than 10 micromolar) |
| O=C(Nc1ccc2c(ccn2C(=O)c2c(Cl)cccc2Cl)c1)c1cccc(C(F)(F)F)c1 [Compound 250] | b (“b” indicates activity is at a concentration greater than 10 micromolar) |
| O=C(Nc1ccc2c(ccn2C(=O)c2c(Cl)cccc2Cl)c1)c1cccs1 [Compound 251] | b (“b” indicates activity is at a concentration greater than 10 micromolar) |
| O=C(Nc1ccc2c(ccn2C(=O)c2c(Cl)cccc2Cl)c1)C1CCCCC1 [Compound 252] | b (“b” indicates activity is at a concentration greater than 10 micromolar) |
| O=C(Nc1ccc2c(ccn2C(=O)c2c(Cl)cccc2Cl)c1)C1CC1 [Compound 254] | b (“b” indicates activity is at a concentration greater than 10 micromolar) |
| O=C(Cc1cccnc1)Nc1ccc2c(ccn2C(=O)c2c(Cl)cccc2Cl)c1 [Compound 255] | b (“b” indicates activity is at a concentration greater than 10 micromolar) |
| Cc1cc2cc(NC(=O)c3sccc3Cl)ccc2n1C(=O)c1c(Cl)cccc1Cl [Compound 256] | b (“b” indicates activity is at a concentration greater than 10 micromolar) |
| Cc1cc2cc(NC(=O)c3cccnc3)ccc2n1C(=O)c1c(F)cccc1C(F)(F)F [Compound 257] | b (“b” indicates activity is at a concentration greater than 10 micromolar) |
| O=C(Nc1ccc2c(ccn2C(=O)c2c(Cl)cccc2Cl)c1)C1CCC1 [Compound 258] | b (“b” indicates activity is at a concentration greater than 10 micromolar) |
| Cc1cc2cc(NC(=O)C3CC3)ccc2n1C(=O)c1ccccc1 [Compound 259] | b (“b” indicates activity is at a concentration greater than 10 micromolar) |
| Cc1cc2cc(NC(=O)C3CCCCC3)ccc2n1C(=O)c1ccccc1 [Compound 260] | b (“b” indicates activity is at a concentration greater than 10 micromolar) |
| Cc1cccc(F)c1C(=O)n1c(C)cc2cc(NC(=O)C3CCCCC3)ccc21 [Compound 262] | b (“b” indicates activity is at a concentration greater than 10 micromolar) |
| Cc1cc2cc(NC(=O)CBr)ccc2n1C(=O)c1c(Cl)cccc1Cl [Compound 263] | b (“b” indicates activity is at a concentration greater than 10 micromolar) |
